Data on 28 compounds can be found in patent US20240043427A1 (Gilead Sciences, Inc., priority 2020, published 2024).

pEC50, pIC50: −log10 of the molar value. A value given as a limit tells only on which side of the number the result lay.

Assay [1] has as its target T1, CD73 (Homo sapiens (Human), UniProt P21589). Nature of the assay: MDA-MB-231 Cell Based CD73 Activity Assay (DMEM). As to conditions: MDA-MB-231-GFP cells, DMEM medium with 10% human plasma, 200 uM AMP.
Assay [2] concerns the target T1, CD73. Type of assay: biochemical. Particulars: 1 mM NaH2PO4 in enzyme buffer, CD73 0.3 nM, AMP 15 uM.

T1 sequence (P21589 27-574): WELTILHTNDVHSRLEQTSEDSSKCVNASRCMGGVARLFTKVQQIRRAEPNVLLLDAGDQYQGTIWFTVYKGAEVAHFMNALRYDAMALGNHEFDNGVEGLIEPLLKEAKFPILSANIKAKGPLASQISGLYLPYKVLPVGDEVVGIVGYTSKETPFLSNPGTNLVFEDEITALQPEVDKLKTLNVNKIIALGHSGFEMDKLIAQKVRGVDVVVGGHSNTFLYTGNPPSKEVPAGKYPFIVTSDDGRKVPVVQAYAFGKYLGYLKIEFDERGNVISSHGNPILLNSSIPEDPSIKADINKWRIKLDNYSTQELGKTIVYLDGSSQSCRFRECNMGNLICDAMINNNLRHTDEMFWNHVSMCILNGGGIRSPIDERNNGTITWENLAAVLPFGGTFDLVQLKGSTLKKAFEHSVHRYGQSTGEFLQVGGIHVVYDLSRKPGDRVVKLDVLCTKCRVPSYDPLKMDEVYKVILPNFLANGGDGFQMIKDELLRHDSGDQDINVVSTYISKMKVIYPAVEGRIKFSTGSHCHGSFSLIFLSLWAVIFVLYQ

Take `CC(C)(COc1cc(-c2c[nH]c(=O)[nH]c2=O)nn2ccnc12)C(F)(F)F` [Example 676, 5-(8-(3,3,3-trifluoro-2,2-dimethylpropoxy)imidazo[1,2-b]pyridazin-6-yl)pyrimidine-2,4(1H,3H)-dione]: the pEC50 (in general, the negative decadic logarithm of the EC50, by convention in mol/L) on CD73 [1] is 6.37. For the same compound, the pIC50 (commonly the IC50 on a negative log10 scale, so that one unit is a factor of ten) at CD73 [2] is 6.85.

Consider `CC(F)(F)COc1cc(-c2c[nH]c(=O)[nH]c2=O)nn2ccnc12` [Example 677, 5-(8-(2,2-difluoropropoxy)imidazo[1,2-b]pyridazin-6-yl)pyrimidine-2,4(1H,3H)-dione], for which the pEC50 on CD73 [1] was 7.65. Further, the pIC50 at CD73 [2] was 7.91.

`CC(C)COc1cc(-c2c[nH]c(=O)[nH]c2=O)nn2ccnc12` [Example 678, 5-(8-isobutoxyimidazo[1,2-b]pyridazin-6-yl)pyrimidine-2,4(1H,3H)-dione] had a pEC50 at CD73 [1] of 7.41. On CD73 [2], this compound showed a pIC50 of 7.62.

In turn, `CC(C)C(C)Oc1cc(-c2c[nH]c(=O)[nH]c2=O)nn2ccnc12` (centres unmarked) [Example 680, 5-(8-((3-methylbutan-2-yl)oxy)imidazo[1,2-b]pyridazin-6-yl)pyrimidine-2,4(1H,3H)-dione] showed a pEC50 at CD73 [1] of 6.34. Besides, the pIC50 against CD73 [2] is 6.65.

On CD73 [1], `O=c1[nH]cc(-c2cc(OCCC(F)(F)F)c3nccn3n2)c(=O)[nH]1` [Example 681, 5-(8-(3,3,3-trifluoropropoxy)imidazo[1,2-b]pyridazin-6-yl)pyrimidine-2,4(1H,3H)-dione] showed a pEC50 of 7.03. Also, the pIC50 at CD73 [2] is 7.21.

`O=c1[nH]cc(-c2cc(OCC(F)(F)c3ccccc3)c3nccn3n2)c(=O)[nH]1` [Example 682, 5-(8-(2,2-difluoro-2-phenylethoxy)imidazo[1,2-b]pyridazin-6-yl)pyrimidine-2,4(1H,3H)-dione] gave a pEC50 on CD73 [1] of 7.75. For the same compound, on CD73 [2], the negative-log IC50 (pIC50) is 8.80.

Take `C#CC1(C)CCN(c2cc(-c3c[nH]c(=O)[nH]c3=O)nn3ccnc23)C1` (centres unmarked) [Example 683, 5-(8-(3-ethynyl-3-methylpyrrolidin-1-yl)imidazo[1,2-b]pyridazin-6-yl)pyrimidine-2,4(1H,3H)-dione]: the pEC50 on CD73 [1] was 7.96. The same compound showed a pIC50 against CD73 [2] of 8.88.

`C#CC1CCN(c2cc(-c3c[nH]c(=O)[nH]c3=O)nn3ccnc23)C1` (centres unmarked) [Example 684, 5-(8-(3-ethynylpyrrolidin-1-yl)imidazo[1,2-b]pyridazin-6-yl)pyrimidine-2,4(1H,3H)-dione]: the pEC50 at CD73 [1] was 8.23. The compound also showed a pIC50 on CD73 [2] of 8.89.

`CC(C)(O)C#Cc1cc(-c2c[nH]c(=O)[nH]c2=O)nn2ccnc12` [Example 685, 5-(8-(3-hydroxy-3-methylbut-1-yn-1-yl)imidazo[1,2-b]pyridazin-6-yl)pyrimidine-2,4(1H,3H)-dione] showed a pEC50 on CD73 [1] of 6.26. On CD73 [2], this compound gave a pIC50 of less than 6.60.

At CD73 [1], `CC(C)(C)C#Cc1cc(-c2c[nH]c(=O)[nH]c2=O)nn2ccnc12` [Example 686, 5-(8-(3,3-dimethylbut-1-yn-1-yl)imidazo[1,2-b]pyridazin-6-yl)pyrimidine-2,4(1H,3H)-dione] gave a pEC50 of 6.54. Besides, on CD73 [2], the pIC50 was 7.35.

`O=c1[nH]cc(-c2cc(OCC(F)(F)CO)c3nccn3n2)c(=O)[nH]1` [Example 687, 5-(8-(2,2-difluoro-3-hydroxypropoxy)imidazo[1,2-b]pyridazin-6-yl)pyrimidine-2,4(1H,3H)-dione]: the pEC50 on CD73 [1] was 7.27. The compound also had a pIC50 at CD73 [2] of 8.06.

The compound `CCC(F)(F)COc1cc(-c2c[nH]c(=O)[nH]c2=O)nn2ccnc12` [Example 688, 5-(8-(2,2-difluorobutoxy)imidazo[1,2-b]pyridazin-6-yl)pyrimidine-2,4(1H,3H)-dione] had a pEC50 at CD73 [1] of 7.47. On CD73 [2], this compound showed a pIC50 of 8.15.

On to `O=c1[nH]cc(-c2cc(OCC(F)(F)C3CC3)c3nccn3n2)c(=O)[nH]1` [Example 689, 5-(8-(2-cyclopropyl-2,2-difluoroethoxy)imidazo[1,2-b]pyridazin-6-yl)pyrimidine-2,4(1H,3H)-dione], for which the pEC50 on CD73 [1] was 7.98. Besides, the pIC50 against CD73 [2] is 8.52.

For `O=c1[nH]cc(-c2cc(OCC(F)(F)C(F)(F)F)c3nccn3n2)c(=O)[nH]1` [Example 690, 5-(8-(2,2,3,3,3-pentafluoropropoxy)imidazo[1,2-b]pyridazin-6-yl)pyrimidine-2,4(1H,3H)-dione], at CD73 [1], the pEC50 was 7.66. The pIC50 against CD73 [2] is 7.90.

Consider `C[C@H](COc1cc(-c2c[nH]c(=O)[nH]c2=O)nn2ccnc12)c1ccccc1` [Example 691, (S)-5-(8-(2-phenylpropoxy)imidazo[1,2-b]pyridazin-6-yl)pyrimidine-2,4(1H,3H)-dione], for which, at CD73 [1], the pEC50 is 6.46. The compound also showed a pIC50 on CD73 [2] of 7.36.

As to `O=c1[nH]cc(-c2cc(OCC(F)(F)c3ccccn3)c3nccn3n2)c(=O)[nH]1` [Example 692, 5-(8-(2,2-difluoro-2-(pyridin-2-yl)ethoxy)imidazo[1,2-b]pyridazin-6-yl)pyrimidine-2,4(1H,3H)-dione], the pEC50 at CD73 [1] is 7.64. Besides, the pIC50 against CD73 [2] is 8.49.

`Cn1ccnc1C(F)(F)COc1cc(-c2c[nH]c(=O)[nH]c2=O)nn2ccnc12` [Example 693, 5-(8-(2,2-difluoro-2-(1-methyl-1H-imidazol-2-yl)ethoxy)imidazo[1,2-b]pyridazin-6-yl)pyrimidine-2,4(1H,3H)-dione]: the pEC50 on CD73 [1] is 7.31. For the same compound, the pIC50 on CD73 [2] was 8.01.

`CC(C)NC(=O)OCC(F)(F)COc1cc(-c2c[nH]c(=O)[nH]c2=O)nn2ccnc12` [Example 694, 3-((6-(2,4-dioxo-1,2,3,4-tetrahydropyrimidin-5-yl)imidazo[1,2-b]pyridazin-8-yl)oxy)-2,2-difluoropropyl isopropylcarbamate]: the pEC50 on CD73 [1] was 9.64. The pIC50 against CD73 [2] was 9.21.

As to `O=c1[nH]cc(-c2cc(OCC(F)(F)COc3ccccn3)c3nccn3n2)c(=O)[nH]1` [Example 695, 5-(8-(2,2-difluoro-3-(pyridin-2-yloxy)propoxy)imidazo[1,2-b]pyridazin-6-yl)pyrimidine-2,4(1H,3H)-dione], on CD73 [1], the pEC50 was 7.76. The pIC50 at CD73 [2] was 8.74.

With `O=C(OCC(F)(F)F)OCC(F)(F)COc1cc(-c2c[nH]c(=O)[nH]c2=O)nn2ccnc12` [Example 696, 3-((6-(2,4-dioxo-1,2,3,4-tetrahydropyrimidin-5-yl)imidazo[1,2-b]pyridazin-8-yl)oxy)-2,2-difluoropropyl (2,2,2-trifluoroethyl) carbonate], the pEC50 at CD73 [1] is 6.98. At CD73 [2], this compound showed a pIC50 of 9.29.

For the compound `O=c1[nH]cc(-c2cc([C@H]3C[C@@H]3c3ccc4c(F)nn(CC(F)(F)F)c4c3)c3ncc(F)n3n2)c(=O)[nH]1` [Example 697, 5-(3-fluoro-8-((1S,2S)-2-(3-fluoro-1-(2,2,2-trifluoroethyl)-1H-indazol-6-yl)cyclopropyl)imidazo[1,2-b]pyridazin-6-yl)pyrimidine-2,4(1H,3H)-dione], at CD73 [1], the pEC50 was 9.57. This compound had a pIC50 on CD73 [2] of 9.19.

`CC1(C)C(=O)N(CC(F)(F)F)c2cc([C@H]3C[C@@H]3c3cc(-c4c[nH]c(=O)[nH]c4=O)nn4ccnc34)cnc21` [Example 698, 5-(8-((1S,2S)-2-(3,3-dimethyl-2-oxo-1-(2,2,2-trifluoroethyl)-2,3-dihydro-1H-pyrrolo[3,2-b]pyridin-6-yl)cyclopropyl)imidazo[1,2-b]pyridazin-6-yl)pyrimidine-2,4(1H,3H)-dione]: the pEC50 on CD73 [1] was 9.09. This compound also gave a pIC50 at CD73 [2] of 8.42.

Compound `CC1(C)C(=O)N(CC(F)(F)F)c2cc([C@H]3C[C@@H]3c3cc(-c4c[nH]c(=O)[nH]c4=O)nn4ccnc34)cnc21` [Example 699, 5-(8-((1S,2S)-2-(3,3-dimethyl-2-oxo-1-(2,2,2-trifluoroethyl)-2,3-dihydro-1H-pyrrolo[3,2-b]pyridin-6-yl)cyclopropyl)imidazo[1,2-b]pyridazin-6-yl)pyrimidine-2,4(1H,3H)-dione] showed a pEC50 at CD73 [1] of 9.25. This compound gave a pIC50 at CD73 [2] of 8.50.

Turning to `CC1(C)C(=O)N(CC(F)(F)F)c2cc([C@H]3C[C@@H]3c3cc(-c4c[nH]c(=O)[nH]c4=O)nn4ccnc34)ncc21` [Example 700, 5-(8-((1S,2S)-2-(3,3-dimethyl-2-oxo-1-(2,2,2-trifluoroethyl)-2,3-dihydro-1H-pyrrolo[3,2-c]pyridin-6-yl)cyclopropyl)imidazo[1,2-b]pyridazin-6-yl)pyrimidine-2,4(1H,3H)-dione], at CD73 [1], the pEC50 was 9.27. In addition, at CD73 [2], the pIC50 is 8.36.

Consider `O=c1[nH]cc(-c2cc([C@H]3C[C@@H]3c3ccc4c(C(F)(F)F)cn(CC(F)(F)F)c4n3)c3nccn3n2)c(=O)[nH]1` [Example 701, 5-(8-((1S,2S)-2-(1-(2,2,2-trifluoroethyl)-3-(trifluoromethyl)-1H-pyrrolo[2,3-b]pyridin-6-yl)cyclopropyl)imidazo[1,2-b]pyridazin-6-yl)pyrimidine-2,4(1H,3H)-dione], for which the pEC50 at CD73 [1] was 8.59. Moreover, on CD73 [2], the pIC50 is 8.52.

For the compound `CC1(C)C(=O)N(CC(F)(F)F)c2cc([C@H]3C[C@@H]3c3cc(-c4c[nH]c(=O)[nH]c4=O)nn4c(F)cnc34)ccc21` [Example 702, 5-(8-((1S,2S)-2-(3,3-dimethyl-2-oxo-1-(2,2,2-trifluoroethyl)indolin-6-yl)cyclopropyl)-3-fluoroimidazo[1,2-b]pyridazin-6-yl)pyrimidine-2,4(1H,3H)-dione], the pEC50 on CD73 [1] was 9.59. At CD73 [2], this compound gave a pIC50 of 8.77.

At CD73 [1], `CC1(C)C(=O)N(CC(F)(F)F)c2cc([C@H]3C[C@@H]3c3cc(-c4c[nH]c(=O)[nH]c4=O)nn4ccnc34)ccc21` [Example 703, 5-(8-((1S,2S)-2-(3,3-dimethyl-2-oxo-1-(2,2,2-trifluoroethyl)indolin-6-yl)cyclopropyl)imidazo[1,2-b]pyridazin-6-yl)pyrimidine-2,4(1H,3H)-dione] showed a pEC50 of 9.85. At CD73 [2], the negative logarithm of the IC50 (pIC50) is 8.91.

`O=c1[nH]cc(-c2cc([C@H]3C[C@@H]3c3ccc4ccn(CC(F)(F)F)c4n3)c3nccn3n2)c(=O)[nH]1` [Example 704, 5-(8-((1S,2S)-2-(1-(2,2,2-trifluoroethyl)-1H-pyrrolo[2,3-b]pyridin-6-yl)cyclopropyl)imidazo[1,2-b]pyridazin-6-yl)pyrimidine-2,4(1H,3H)-dione] had a pEC50 at CD73 [1] of 9.44. For the same compound, the pIC50 against CD73 [2] was 9.14.
